From patent publication US20040254162A1, “Oxazolidinone derivatives as antimicrobials” (priority 2001, published 2004)
≈ marks a conversion by molar mass, not a printed value. Like-named read-outs stand apart in the source and are kept apart here.

Key:
[1] = test system: Bacteroides fragilis; experiment: Agar dilution MIC, anaerobes; type: cell-based; details: Bacteroides fragilis, single isolates, anaerobic agar dilution; read-out: MIC Bacteroides fragilis
[2] = test system: Prevotella intermedia; experiment: Agar dilution MIC, anaerobes; type: cell-based; details: single isolates, anaerobic agar dilution
[3] = test system: Porphyromonas gingivalis; experiment: Agar dilution MIC, anaerobes; type: cell-based; details: Porphyromonas gingivalis; single isolate, anaerobic agar dilution; read-out: MIC Porphyromonas gingivalis
[4] = test system: Peptostreptococcus asaccharolyticus; experiment: Agar dilution MIC, anaerobes; type: cell-based; details: single isolates, anaerobic agar dilution
[5] = test system: Peptostreptococcus magnum; experiment: Agar dilution MIC, anaerobes; type: cell-based; details: single isolates, anaerobic agar dilution
[6] = test system: Peptostreptococcus micros; experiment: Agar dilution MIC, anaerobes; type: cell-based; details: single isolates, anaerobic agar dilution
[7] = test system: Fusobacterium necrogenes; experiment: Agar dilution MIC, anaerobes; type: cell-based; details: Fusobacterium necrogenes; single isolate, anaerobic agar dilution; read-out: MIC Fusobacterium necrogenes
[8] = test system: MRSE 879; experiment: Broth MIC, MRSE 879; type: cell-based; details: Staphylococcus epidermidis; MRSE 879; read-out: broth MIC
[9] = test system: clinically relevant gram positive pathogens; details: nearly all clinically relevant gram positive pathogens; cited from earlier work
[10] = test system: MRSA 15187; experiment: MIC, agar incorporation method; details: Staphylococcus aureus, MRSA, read-out: MIC MRSA 15187
[11] = test system: MRSA 562; experiment: MIC, agar incorporation method; details: Staphylococcus aureus, MRSA
[12] = test system: Mycobacterium tuberculosis; experiment: microbe, parasite or virus in culture; details: 504 h

CC(=O)NC[C@H]1CN(c2ccc(N3CCOCC3)c(F)c2)C(=O)O1 [Linezolid]
MIC [1]: 4 µg/mL (≈ 11.9 µM) | MIC ([2]; Prevotella intermedia, read-out: MIC Prevotella intermedia): 0.5 µg/mL (≈ 1.48 µM) | MIC Prevotella intermedia [2]: 1 µg/mL (≈ 2.96 µM) | MIC [3]: 1 µg/mL (≈ 2.96 µM) | MIC ([4]; Peptoniphilus asaccharolyticus): 0.5 µg/mL (≈ 1.48 µM) | MIC Peptostreptococcus asaccharolyticus [4]: 1 µg/mL (≈ 2.96 µM) | MIC ([5]; Peptostreptococcus, read-out: MIC Peptostreptococcus magnum): 2 µg/mL (≈ 5.93 µM) | MIC Peptostreptococcus magnum [5]: 1 µg/mL (≈ 2.96 µM) | MIC ([6]; Parvimonas micra, read-out: MIC Peptostreptococcus micros): 0.5 µg/mL (≈ 1.48 µM) | MIC Peptostreptococcus micros [6]: 1 µg/mL (≈ 2.96 µM) | MIC [7]: 0.5 µg/mL (≈ 1.48 µM) | MIC [8]: 2 µg/mL (≈ 5.93 µM) | MIC90 [9]: 2 to 4 µg/mL | MIC [10]: 1 µg/mL (≈ 2.96 µM) | MIC [11]: 2 µg/mL (≈ 5.93 µM) | MIC ([11]; read-out: MIC MRSA 562): 2 µg/mL (≈ 5.93 µM) | MIC50 [12]: 8 µg/mL (≈ 23.7 µM) | MIC90 [12]: 64 µg/mL (≈ 190 µM)
